Converted amounts (≈) assume the structure as drawn.
Assays:
Assay in all cases: Bacterial growth minimal inhibitory concentration (broth microdilution, CLSI M7-A7)
E. coli ATCC25922 = type: cell-based, Escherichia coli; conditions: Escherichia coli, ATCC25922; cation-adjusted Mueller-Hinton Broth, microdilution; quinolone-sensitive strain; read-out: MIC for E. coli ATCC25922
Procedure: (§1) Minimal Inhibitory Concentrations (MICs; mg/L) were determined in cation-adjusted Mueller-Hinton Broth by a microdilution method following the description given in “Methods for Dilution Antimicrobial Susceptibility Tests for Bacteria that Grow Aerobically”, Approved standard, 7th ed., Clinical and Laboratory Standards Institute (CLSI) Document M7-A7, Wayne, Pa., USA (2006).
(§2) All Example compounds, except the compound of Example 62, were tested against several Gram-positive and Gram-negative bacteria. […] K. pneumoniae A-651 and Acinetobacter baumannii T6474 are multiply-resistant strains (in particular quinolone-resistant), while E. coli ATCC25922 and P. aeruginosa ATCC27853 are quinolone-sensitive strains.

P. aeruginosa ATCC27853 = type: cell-based, Pseudomonas aeruginosa; conditions: Pseudomonas aeruginosa, ATCC27853; cation-adjusted Mueller-Hinton Broth, microdilution; quinolone-sensitive strain; read-out: MIC for P. aeruginosa ATCC27853
Procedure: as §1, §2

[1] = tested on: Acinetobacter baumannii T6474; type: cell-based; conditions: Acinetobacter baumannii, T6474; cation-adjusted Mueller-Hinton Broth, microdilution; multiply-resistant (quinolone-resistant) strain; read-out: MIC for A. Baumannii T6474
Procedure: as §1, §2

K. pneumoniae A-651 = type: cell-based, Klebsiella pneumoniae; conditions: Klebsiella pneumoniae, A651; cation-adjusted Mueller-Hinton Broth, microdilution; multiply-resistant (quinolone-resistant) strain; read-out: MIC for K. Pneumoniae A-651
Procedure: as §1, §2

| SMILES | MIC (E. coli ATCC25922) [mg/L] | MIC (P. aeruginosa ATCC27853) [mg/L] | MIC [1] [mg/L] | MIC (K. pneumoniae A-651) [mg/L] |
| --- | --- | --- | --- | --- |
| C[C@@](CCn1cc2c(F)c(C#CC#CC3(O)COC3)ccc2n1)(C(=O)NO)S(C)(=O)=O [Example 38, (R)-4-{4-fluoro-5-[4-(3-hydroxy-oxetan-3-yl)-buta-1,3-diynyl]-indazol-2-yl}-N-hydroxy-2-methylsulfonyl-2-methyl-butanamide] | 0.5 (≈ 1.11 µM) | 1 (≈ 2.22 µM) | > 32 | 1 (≈ 2.22 µM) |
| C[C@@](O)(C#CC#Cc1ccc2nn(CC[C@](C)(C(=O)NO)S(C)(=O)=O)cc2c1)CO [Example 46, (R)-4-(5-((R)-5,6-dihydroxy-5-methylhexa-1,3-diyn-1-yl)-2H-indazol-2-yl)-N-hydroxy-2-methyl-2-(methylsulfonyl)butanamide] | 4 (≈ 9.23 µM) | 4 (≈ 9.23 µM) | > 32 | 8 (≈ 18.5 µM) |
| C[C@@](CCn1cc2cc(C#CC#CC3CN(C(=O)CN)C3)ccc2n1)(C(=O)NO)S(C)(=O)=O [Example 84, (R)-4-(5-((1-glycylazetidin-3-yl)buta-1,3-diyn-1-yl)-2H-indazol-2-yl)-N-hydroxy-2-methyl-2-(methylsulfonyl)butanamide] | 1 (≈ 2.12 µM) | 0.5 (≈ 1.06 µM) | > 32 | 4 (≈ 8.48 µM) |
| CC(CCn1cc2cc(-c3ccc(OCCN4CCOCC4)cc3F)ccc2n1)(C(=O)NO)S(C)(=O)=O.O=CO (racemic) [RE3, (RS)-4-{5-[2-fluoro-4-(2-morpholin-4-yl-ethoxy)-phenyl]-indazol-2-yl}-N-hydroxy-2-methylsulfonyl-2-methyl-butanamide formic acid salt] | 1 | 8 | 8 | 2 |
| C[C@@](CCn1cc2cc(-c3ccc(OCCO)cc3F)ccc2n1)(C(=O)NO)S(C)(=O)=O [Example 50, (R)-4-(5-(2-fluoro-4-(2-hydroxyethoxy)phenyl)-2H-indazol-2-yl)-N-hydroxy-2-methyl-2-(methylsulfonyl)butanamide] | 0.5 (≈ 1.07 µM) | 2 (≈ 4.3 µM) | 2 (≈ 4.3 µM) | 1 (≈ 2.15 µM) |
| C[C@@](CCn1cc2cc(-c3ccc(OC(F)(F)F)cc3F)ccc2n1)(C(=O)NO)S(C)(=O)=O [Example 35, (R)-4-[5-(2-fluoro-4-trifluoromethoxy-phenyl)-indazol-2-yl]-N-hydroxy-2-methylsulfonyl-2-methyl-butanamide] | 0.125 (≈ 0.255 µM) | 4 (≈ 8.17 µM) | 0.25 (≈ 0.511 µM) | 0.5 (≈ 1.02 µM) |
| C[C@@](CCn1cc2cc(C#Cc3ccc(NC(=O)CO)c(F)c3)ccc2n1)(C(=O)NO)S(C)(=O)=O [Example 45, (R)-4-(5-((3-fluoro-4-(2-hydroxyacetamido)phenyl)ethynyl)-2H-indazol-2-yl)-N-hydroxy-2-methyl-2-(methylsulfonyl)butanamide] | 0.25 (≈ 0.497 µM) | 1 (≈ 1.99 µM) | 8 (≈ 15.9 µM) | 1 (≈ 1.99 µM) |
| COc1ccc(-c2ccc3nn(CC[C@](C)(C(=O)NO)S(C)(=O)=O)cc3c2F)cc1 [Example 4, (R)-4-[4-fluoro-5-(4-methoxy-phenyl)-indazol-2-yl]-N-hydroxy-2-methylsulfonyl-2-methyl-butanamide] | 0.125 (≈ 0.287 µM) | 4 (≈ 9.19 µM) | 2 (≈ 4.59 µM) | 0.5 (≈ 1.15 µM) |
| CC(CCn1cc2cc(-c3ccc(-c4ncco4)cc3)ccc2n1)(C(=O)NO)S(C)(=O)=O.O=CO (racemic) [RE6, (RS)—N-hydroxy-2-methylsulfonyl-2-methyl-4-[5-(4-oxazol-2-yl-phenyl)-indazol-2-yl]-butanamide formic acid salt] | 0.125 | 8 | 4 | 0.25 |
| C[C@@](CCn1cc2c(F)c(C#CC#C[C@H]3C[C@@H]3CO)ccc2n1)(C(=O)NO)S(C)(=O)=O [Example 54, (R)-4-(4-fluoro-5-(((1S,2S)-2-(hydroxymethyl)cyclopropyl)buta-1,3-diyn-1-yl)-2H-indazol-2-yl)-N-hydroxy-2-methyl-2-(methylsulfonyl)butanamide] | ≤ 0.063 | 0.5 (≈ 1.12 µM) | 4 (≈ 8.94 µM) | ≤ 0.063 |
| CC(C)(O)C#CC#Cc1ccc2nn(CC[C@](C)(C(=O)NO)S(C)(=O)=O)cc2c1 [Example 32, (R)—N-hydroxy-4-[5-(5-hydroxy-5-methyl-hexa-1,3-diynyl)-indazol-2-yl]-2-methylsulfonyl-2-methyl-butanamide] | 0.5 (≈ 1.2 µM) | 1 (≈ 2.4 µM) | 32 (≈ 76.6 µM) | 0.5 (≈ 1.2 µM) |
| C[C@@](CCn1cc2cc(C#CC#CC3CN(C(=O)CO)C3)ccc2n1)(C(=O)NO)S(C)(=O)=O [Example 81, (R)—N-hydroxy-4-(5-((1-(2-hydroxyacetyl)azetidin-3-yl)buta-1,3-diyn-1-yl)-2H-indazol-2-yl)-2-methyl-2-(methylsulfonyl)butanamide] | 0.5 (≈ 1.06 µM) | 1 (≈ 2.12 µM) | 4 (≈ 8.47 µM) | 1 (≈ 2.12 µM) |

Source: patent US9802901B2, “Antibacterial 2H-indazole derivatives” (priority 2013, dated 2017)
